Results taken from ChEMBL document CHEMBL5634090, “Design of phenothiazine-based cationic amphiphilic derivatives incorporating arginine residues: Potential membrane-active broad-spectrum antimicrobials combating pathogenic bacteria in vitro and in vivo” (Eur J Med Chem, 2023).
Converted amounts (≈) assume the structure as drawn. The source made the active and inactive calls. The calls are words filed in the database; no cut-off is given here.

Assays:
[1] = Selectivity index, ratio of CC50 for cytotoxicity against mouse NCTC clone 929 cells to MIC for antibacterial activity against Klebsiella pneumoniae ATCC 14581; format: toxicity, cell-based; conditions: read-out: Selectivity Index
[2] = Selectivity index, ratio of CC50 for cytotoxicity against mouse NCTC clone 929 cells to MIC for antibacterial activity against Klebsiella pneumoniae ATCC 10031; format: toxicity, cell-based; conditions: read-out: Selectivity Index
Staphylococcus aureus [3] = assay: Antibacterial activity against Staphylococcus aureus ATCC 29213 by microbroth dilution assay; format: functional
[4] = Cytotoxicity against mouse NCTC clone 929 cells assessed as cell survival rate at 12.5 ug/ml by CCK-8 assay relative to control; format: toxicity, cell-based; conditions: NCTC clone 929 (L929) cells, at 12.5 µg/mL, read-out: Activity
[5] = Cytotoxicity against mouse NCTC clone 929 cells assessed as cell survival rate at 25 ug/ml by CCK-8 assay relative to control; format: toxicity, cell-based; conditions: NCTC clone 929 (L929) cells, at 25 µg/mL, read-out: Activity
[6] = Cytotoxicity against HEK293 cells assessed as cell survival rate at 3.125 ug/ml by CCK-8 assay relative to control; format: toxicity, cell-based; conditions: human, at 3.125 µg/mL, read-out: Activity
[7] = Cytotoxicity against HEK293 cells assessed as cell survival rate at 25 ug/ml by CCK-8 assay relative to control; format: toxicity, cell-based; conditions: human, at 25 µg/mL, read-out: Activity
Staphylococcus aureus [8] = assay: Antibacterial activity against Staphylococcus aureus ATCC 29213 assessed as log reduction in bacterial load at 8 times MIC measured after 2 hrs by time kill assay; format: functional
Klebsiella pneumoniae [9] = assay: Antibacterial activity against Klebsiella pneumoniae ATCC 10031 assessed as log reduction in bacterial load at 8 times MIC measured after 2 hrs by time kill assay; format: functional
[10] = Selectivity index, ratio of CC50 for cytotoxicity against mouse NCTC clone 929 cells to MIC for antibacterial activity against methicillin resistant Staphylococcus aureus N315; format: toxicity, cell-based; conditions: read-out: Selectivity Index
[11] = Selectivity index, ratio of CC50 for cytotoxicity against HEK293 cells to MIC for antibacterial activity against Klebsiella pneumoniae ATCC 10031; format: toxicity, cell-based; conditions: human, read-out: Selectivity Index
[12] = Selectivity index, ratio of CC50 for cytotoxicity against HEK293 cells to MIC for antibacterial activity against Pseudomonas aeruginosa ATCC 9027; format: toxicity, cell-based; conditions: human, read-out: Selectivity Index
Staphylococcus aureus [13] = assay: Antibacterial activity against Staphylococcus aureus ATCC 29213 in presence of 2.5 mmol/L Ca2+ by broth microdilution method; format: functional
Staphylococcus aureus [14] = assay: Antibacterial activity against Staphylococcus aureus ATCC 29213 in presence of 1 mmol/L Mg2+ by broth microdilution method; format: functional
Staphylococcus aureus [15] = assay: Antibacterial activity against Staphylococcus aureus ATCC 29213 in presence of 20 umol/L Fe3+ by broth microdilution method; format: functional
Staphylococcus aureus [16] = assay: Antibacterial activity against methicillin resistant Staphylococcus aureus N315 in presence of 140 mmol/L Na+ by broth microdilution method; format: functional
Staphylococcus aureus [17] = assay: Antibacterial activity against methicillin resistant Staphylococcus aureus N315 in presence of 1 mmol/L Mg2+ by broth microdilution method; format: functional
Staphylococcus aureus [18] = assay: Antibacterial activity against methicillin resistant Staphylococcus aureus N315 in presence of 20 umol/L Fe2+ by broth microdilution method; format: functional
Staphylococcus aureus [19] = assay: Antibacterial activity against methicillin resistant Staphylococcus aureus N315 in presence of 19 umol/L Zn2+ by broth microdilution method; format: functional
Staphylococcus aureus [20] = assay: Antibacterial activity against methicillin resistant Staphylococcus aureus NCTC 10442 in presence of 140 mmol/L Na+ by broth microdilution method; format: functional
Escherichia coli [21] = assay: Antibacterial activity against Escherichia coli ATCC 25922 in presence of 140 mmol/L Na+ by broth microdilution method; format: functional
Escherichia coli [22] = assay: Antibacterial activity against Escherichia coli ATCC 25922 in presence of 4.5 mmol/L K+ by broth microdilution method; format: functional
Escherichia coli [23] = assay: Antibacterial activity against Escherichia coli ATCC 25922 in presence of 20 umol/L Fe3+ by broth microdilution method; format: functional
Klebsiella pneumoniae [24] = assay: Antibacterial activity against Klebsiella pneumoniae ATCC 10031 in presence of 19 umol/L Zn2+ by broth microdilution method; format: functional
Klebsiella pneumoniae [25] = assay: Antibacterial activity against Klebsiella pneumoniae ATCC 10031 in presence of 20 umol/L Fe3+ by broth microdilution method; format: functional
Klebsiella pneumoniae [26] = assay: Antibacterial activity against Klebsiella pneumoniae ATCC 14581 in presence of 140 mmol/L Na+ by broth microdilution method; format: functional
Klebsiella pneumoniae [27] = assay: Antibacterial activity against Klebsiella pneumoniae ATCC 14581 in presence of 19 umol/L Fe2+ by broth microdilution method; format: functional
Klebsiella pneumoniae [28] = assay: Antibacterial activity against Klebsiella pneumoniae ATCC 14581 in presence of 19 umol/L Zn2+ by broth microdilution method; format: functional
Pseudomonas aeruginosa [29] = assay: Antibacterial activity against Pseudomonas aeruginosa ATCC 9027 in presence of 2.50 mmol/L Ca2+ by broth microdilution method; format: functional
Pseudomonas aeruginosa [30] = assay: Antibacterial activity against Pseudomonas aeruginosa ATCC 9027 in presence of 1.00 mmol/L Mg2+ by broth microdilution method; format: functional
Pseudomonas aeruginosa [31] = assay: Antibacterial activity against Pseudomonas aeruginosa ATCC 9027 in presence of 19 umol/L Zn2+ by broth microdilution method; format: functional
Klebsiella pneumoniae [32] = assay: Antibacterial activity against Klebsiella pneumoniae ATCC 10031 assessed as cell membrane disruption by SYTOX Green assay; format: functional, organism-based
Klebsiella pneumoniae [33] = assay: Antibacterial activity against Klebsiella pneumoniae ATCC 10031 assessed as loss in membrane integrity at 8 times MIC incubated for 4 hrs by LIVE/DEAD BacLight bacterial viability assay; format: functional, organism-based; conditions: Cell membrane
Staphylococcus aureus [34] = assay: Inhibition of biofilm formation in Staphylococcus aureus ATCC 29213 at 3.125 ug/ml by crystal violet staining assay relative to control; format: functional
Staphylococcus aureus [35] = assay: Inhibition of biofilm formation in Staphylococcus aureus ATCC 29213 at 6.25 ug/ml by crystal violet staining assay relative to control; format: functional
Staphylococcus aureus [36] = assay: Inhibition of biofilm formation in Staphylococcus aureus ATCC 29213 at 12.5 ug/ml by crystal violet staining assay relative to control; format: functional
Klebsiella pneumoniae [37] = assay: Inhibition of biofilm formation in Klebsiella pneumoniae ATCC 10031 at 6.25 ug/ml by crystal violet staining assay relative to control; format: functional
Staphylococcus aureus [38] = assay: Antibiofilm activity against 24 hrs preformed biofilm in Staphylococcus aureus ATCC 29213 assessed as reduction in biofilm viability at 0.39 ug/ml relative to control; format: functional; conditions: dose 0.39 µg/ml
Staphylococcus aureus [39] = assay: Antibiofilm activity against 24 hrs preformed biofilm in Staphylococcus aureus ATCC 29213 assessed as reduction in biofilm viability at 0.78 ug/ml relative to control; format: functional; conditions: dose 0.78 µg/ml
Klebsiella pneumoniae [40] = assay: Antibiofilm activity against 24 hrs preformed biofilm in Klebsiella pneumoniae ATCC 10031 assessed as reduction in biofilm viability at […] ug/ml relative to control; format: functional; conditions: dose […] microg/ml; 1.56 ug/mL
Klebsiella pneumoniae [41] = assay: Antibiofilm activity against 24 hrs preformed biofilm in Klebsiella pneumoniae ATCC 10031 assessed as reduction in biofilm viability at 3.125 ug/ml relative to control; format: functional; conditions: dose 3.125 µg/ml

In the case of `CCCCCCCN1c2ccccc2Sc2ccc(OCC(=O)N[C@@H](CCCNC(=N)N)C(=O)N[C@@H](CCCNC(=N)N)C(N)=O)cc21`, the selectivity ratio [1] is reported as 8, the selectivity ratio [2] is reported as 8 and the MIC (Staphylococcus aureus [3]) is reported as 1.56 µg/mL (≈ 2.28 µM). For the same compound, the viability at 12.5 ug/ml [4] was 70.8%, the viability at 25 ug/ml [5] was 70.8% and the viability at 3.125 ug/ml [6] was 95.4%. The viability at 25 ug/ml [7] was 74.4%, the “log(activity)” value (Staphylococcus aureus [8]) was greater than 3 and the “log(activity)” value (Klebsiella pneumoniae [9]) was greater than 3. For the same compound, the selectivity ratio [10] was 8, the selectivity ratio [11] was 8 and the selectivity ratio [12] was 8. For the same compound, the MIC (Staphylococcus aureus [13]) was 3.12 µg/mL, the MIC (Staphylococcus aureus [14]) was 3.12 µg/mL and the MIC (Staphylococcus aureus [15]) was 1.56 µg/mL. The MIC (Staphylococcus aureus [16]) was 1.56 µg/mL, the MIC (Staphylococcus aureus [17]) was 1.56 µg/mL and the MIC (Staphylococcus aureus [18]) was 1.56 µg/mL. The MIC (Staphylococcus aureus [19]) was 1.56 µg/mL, the MIC (Staphylococcus aureus [20]) was 1.56 µg/mL and the MIC (Escherichia coli [21]) was 3.12 µg/mL. The MIC (Escherichia coli [22]) was 3.12 µg/mL, the MIC (Escherichia coli [23]) was 3.12 µg/mL and the MIC (Klebsiella pneumoniae [24]) was 6.25 µg/mL. It also gave an MIC (Klebsiella pneumoniae [25]) of 6.25 µg/mL, an MIC (Klebsiella pneumoniae [26]) of 3.12 µg/mL and an MIC (Klebsiella pneumoniae [27]) of 3.12 µg/mL. The MIC (Klebsiella pneumoniae [28]) was 3.12 µg/mL, the MIC (Pseudomonas aeruginosa [29]) was 6.25 µg/mL and the MIC (Pseudomonas aeruginosa [30]) was 6.25 µg/mL. The MIC (Pseudomonas aeruginosa [31]) was 3.12 µg/mL, the Activity (Klebsiella pneumoniae [32]) was “Dose-Dependent Effect” and the Activity (Klebsiella pneumoniae [33]) was “Active”. It also gave an inhibition at 3.125 µg/mL (Staphylococcus aureus [34]) of 87.2%, an inhibition at 6.25 µg/mL (Staphylococcus aureus [35]) of 95.1% and an inhibition at 12.5 µg/mL (Staphylococcus aureus [36]) of 96.7%. It also gave an inhibition at 6.25 µg/mL (Klebsiella pneumoniae [37]) of 90%, an Activity (Staphylococcus aureus [38]) of 97.35% and an Activity (Staphylococcus aureus [39]) of 91.66%. It also gave an Activity (Klebsiella pneumoniae [40]) of 73.4% and an Activity (Klebsiella pneumoniae [41]) of 34.26%.
